Experimental data: patent US20030068383A1, “Time release nutritional supplement” (priority 2001, published 2003)

Columns and labels:
[1] = Acid damage to Ribose loaded into 1% cross-linked resin with boiling water; assay type: physicochemical; conditions: 5.9 grams Ribose
[2] = ingested dose, human body; cited from earlier work

Row | Compound | Fate of Ribose within the resin matrix ([1]; 2 grams 1% cross-linked sulfonated resin, 10 grams water preheated to boiling) | Fate of Ribose within the resin matrix ([1]; 2 grams sulfonated resin ion exchanged with Li or K salt, 10 grams water) | Dose typically associated with side effects (diarrhea, gas, flatulence, nausea, stomach cramps) [2]
1 | O=C[C@H](O)[C@H](O)[C@H](O)CO [Ribose, D-Ribose] | destroyed | active and useful | –
2 | CN(CC(=O)O)C(=N)N [creatine, Creatine] | – | – | over 5 grams
